Data taken from the NIST ThermoML archive (doi:10.1016/j.fluid.2017.01.019).
± gives the expanded uncertainty stated by the source.

Assay: xn = mol fraction of the nth substance listed
Conditions: 100 kPa, Liquid; for viscosity: Falling or rolling sphere viscometry; for speed of sound: Frequency=3 MHz, Sing-around technique in a fixed-path interferometer; for mass density: Vibrating tube method

CCOS(=O)(=O)[O-].CCn1cc[n+](C)c1 [1-ethyl-3-methylimidazolium ethyl sulfate] + CCCCO
viscosity (313.15 K, x1 = 0.1071): 2.99 ± 0.16 mPa·s | viscosity (313.15 K, x1 = 0.1982): 4.82 ± 0.16 mPa·s | viscosity (313.15 K, x1 = 0.3069): 6.95 ± 0.18 mPa·s | viscosity (313.15 K, x1 = 0.3985): 9.21 ± 0.21 mPa·s | viscosity (313.15 K, x1 = 0.5048): 12.62 ± 0.27 mPa·s | viscosity (313.15 K, x1 = 0.603): 16.74 ± 0.36 mPa·s | viscosity (313.15 K, x1 = 0.7158): 22.92 ± 0.51 mPa·s | viscosity (313.15 K, x1 = 0.7951): 28.36 ± 0.66 mPa·s | viscosity (313.15 K, x1 = 0.9185): 38.93 ± 0.98 mPa·s | viscosity (313.15 K, x1 = 1): 49.38 ± 1.3 mPa·s | speed of sound (313.15 K, x1 = 0.1071): 1243.2 ± 1.9 m/s | speed of sound (313.15 K, x1 = 0.1982): 1290.7 ± 2.2 m/s | speed of sound (313.15 K, x1 = 0.3069): 1344.1 ± 2.6 m/s | speed of sound (313.15 K, x1 = 0.3985): 1390.4 ± 2.9 m/s | speed of sound (313.15 K, x1 = 0.5048): 1441.8 ± 3.3 m/s | speed of sound (313.15 K, x1 = 0.603): 1485.8 ± 3.6 m/s | speed of sound (313.15 K, x1 = 0.7158): 1534.5 ± 4 m/s | speed of sound (313.15 K, x1 = 0.7951): 1566.7 ± 4.3 m/s | speed of sound (313.15 K, x1 = 0.9185): 1613.1 ± 4.8 m/s | speed of sound (313.15 K, x1 = 1): 1645.9 ± 5.1 m/s | mass density (313.15 K, x1 = 0.1071): 883.165 ± 1.6 kg/m3 | mass density (313.15 K, x1 = 0.1982): 944.157 ± 1.4 kg/m3 | mass density (313.15 K, x1 = 0.3069): 1004.86 ± 1.5 kg/m3 | mass density (313.15 K, x1 = 0.3985): 1048.25 ± 1.8 kg/m3 | mass density (313.15 K, x1 = 0.5048): 1091.49 ± 2.4 kg/m3 | mass density (313.15 K, x1 = 0.603): 1125.39 ± 3.2 kg/m3 | mass density (313.15 K, x1 = 0.7158): 1160.05 ± 4.3 kg/m3 | mass density (313.15 K, x1 = 0.7951): 1181.13 ± 5.3 kg/m3 | mass density (313.15 K, x1 = 0.9185): 1209.91 ± 6.9 kg/m3 | mass density (313.15 K, x1 = 1): 1226.21 ± 8.2 kg/m3 | viscosity (318.15 K, x1 = 0.1071): 2.69 ± 0.15 mPa·s | viscosity (318.15 K, x1 = 0.1982): 4.25 ± 0.16 mPa·s | viscosity (318.15 K, x1 = 0.3069): 6.16 ± 0.18 mPa·s | viscosity (318.15 K, x1 = 0.3985): 8.16 ± 0.2 mPa·s | viscosity (318.15 K, x1 = 0.5048): 11.12 ± 0.25 mPa·s | viscosity (318.15 K, x1 = 0.603): 14.62 ± 0.32 mPa·s | viscosity (318.15 K, x1 = 0.7158): 19.75 ± 0.44 mPa·s | viscosity (318.15 K, x1 = 0.7951): 24.19 ± 0.57 mPa·s | viscosity (318.15 K, x1 = 0.9185): 32.66 ± 0.83 mPa·s | viscosity (318.15 K, x1 = 1): 40.93 ± 1.1 mPa·s | speed of sound (318.15 K, x1 = 0.1071): 1228 ± 1.9 m/s | speed of sound (318.15 K, x1 = 0.1982): 1276.5 ± 2.2 m/s | speed of sound (318.15 K, x1 = 0.3069): 1330.5 ± 2.6 m/s | speed of sound (318.15 K, x1 = 0.3985): 1377.6 ± 2.9 m/s | speed of sound (318.15 K, x1 = 0.5048): 1429.8 ± 3.3 m/s | speed of sound (318.15 K, x1 = 0.603): 1473.7 ± 3.6 m/s | speed of sound (318.15 K, x1 = 0.7158): 1522.6 ± 4 m/s | speed of sound (318.15 K, x1 = 0.7951): 1554.8 ± 4.3 m/s | speed of sound (318.15 K, x1 = 0.9185): 1601.2 ± 4.8 m/s | speed of sound (318.15 K, x1 = 1): 1634.1 ± 5.1 m/s | mass density (318.15 K, x1 = 0.1071): 879.331 ± 1.6 kg/m3 | mass density (318.15 K, x1 = 0.1982): 940.543 ± 1.4 kg/m3 | mass density (318.15 K, x1 = 0.3069): 1001.31 ± 1.5 kg/m3 | mass density (318.15 K, x1 = 0.3985): 1044.72 ± 1.8 kg/m3 | mass density (318.15 K, x1 = 0.5048): 1088.01 ± 2.4 kg/m3 | mass density (318.15 K, x1 = 0.603): 1122.45 ± 3.2 kg/m3 | mass density (318.15 K, x1 = 0.7158): 1156.71 ± 4.3 kg/m3 | mass density (318.15 K, x1 = 0.7951): 1177.81 ± 5.2 kg/m3 | mass density (318.15 K, x1 = 0.9185): 1206.65 ± 6.9 kg/m3 | mass density (318.15 K, x1 = 1): 1222.87 ± 8.1 kg/m3 | viscosity (323.15 K, x1 = 0.1071): 2.43 ± 0.15 mPa·s | viscosity (323.15 K, x1 = 0.1982): 3.69 ± 0.16 mPa·s | viscosity (323.15 K, x1 = 0.3069): 5.43 ± 0.17 mPa·s | viscosity (323.15 K, x1 = 0.3985): 7.28 ± 0.19 mPa·s | viscosity (323.15 K, x1 = 0.5048): 9.93 ± 0.23 mPa·s | viscosity (323.15 K, x1 = 0.603): 12.97 ± 0.29 mPa·s | viscosity (323.15 K, x1 = 0.7158): 17.27 ± 0.39 mPa·s | viscosity (323.15 K, x1 = 0.7951): 20.87 ± 0.5 mPa·s | viscosity (323.15 K, x1 = 0.9185): 27.56 ± 0.7 mPa·s | viscosity (323.15 K, x1 = 1): 33.82 ± 0.89 mPa·s | speed of sound (323.15 K, x1 = 0.1071): 1213 ± 1.9 m/s | speed of sound (323.15 K, x1 = 0.1982): 1262.2 ± 2.2 m/s | speed of sound (323.15 K, x1 = 0.3069): 1317 ± 2.6 m/s | speed of sound (323.15 K, x1 = 0.3985): 1364.8 ± 2.9 m/s | speed of sound (323.15 K, x1 = 0.5048): 1417.4 ± 3.3 m/s | speed of sound (323.15 K, x1 = 0.603): 1461.5 ± 3.6 m/s | speed of sound (323.15 K, x1 = 0.7158): 1510.6 ± 4 m/s | speed of sound (323.15 K, x1 = 0.7951): 1543 ± 4.3 m/s | speed of sound (323.15 K, x1 = 0.9185): 1589.4 ± 4.8 m/s | speed of sound (323.15 K, x1 = 1): 1622.3 ± 5.1 m/s | mass density (323.15 K, x1 = 0.1071): 875.482 ± 1.6 kg/m3 | mass density (323.15 K, x1 = 0.1982): 936.794 ± 1.4 kg/m3 | mass density (323.15 K, x1 = 0.3069): 997.633 ± 1.5 kg/m3 | mass density (323.15 K, x1 = 0.3985): 1041.07 ± 1.8 kg/m3 | mass density (323.15 K, x1 = 0.5048): 1084.47 ± 2.4 kg/m3 | mass density (323.15 K, x1 = 0.603): 1118.96 ± 3.2 kg/m3 | mass density (323.15 K, x1 = 0.7158): 1153.24 ± 4.3 kg/m3 | mass density (323.15 K, x1 = 0.7951): 1174.37 ± 5.2 kg/m3 | mass density (323.15 K, x1 = 0.9185): 1203.18 ± 6.9 kg/m3 | mass density (323.15 K, x1 = 1): 1219.54 ± 8.1 kg/m3
